Assay results reported in US11730741B2, “6-chromanol derivatives for use as a medicament” (Sulfateq B.V., priority 2017, dated 2023).
Marks after values point to notes of the source that are not given here.

Experiments:
[1] = molecular target: T1, human α1 adrenoceptor subtype D (Homo sapiens, UniProt P25100); experiment: Intracellular calcium assay (FLIPR Calcium 6), phenylephrine-stimulated CHO cells overexpressing α1D adrenoceptor; type: cell-based; settings: for logEC50 of phenylephrine-induced calcium influx, α1D: 30 min at 37° C.
T1 construct: expressed in transfected cells; host or cells: CHO-K1
T1 sequence (P25100 1-572): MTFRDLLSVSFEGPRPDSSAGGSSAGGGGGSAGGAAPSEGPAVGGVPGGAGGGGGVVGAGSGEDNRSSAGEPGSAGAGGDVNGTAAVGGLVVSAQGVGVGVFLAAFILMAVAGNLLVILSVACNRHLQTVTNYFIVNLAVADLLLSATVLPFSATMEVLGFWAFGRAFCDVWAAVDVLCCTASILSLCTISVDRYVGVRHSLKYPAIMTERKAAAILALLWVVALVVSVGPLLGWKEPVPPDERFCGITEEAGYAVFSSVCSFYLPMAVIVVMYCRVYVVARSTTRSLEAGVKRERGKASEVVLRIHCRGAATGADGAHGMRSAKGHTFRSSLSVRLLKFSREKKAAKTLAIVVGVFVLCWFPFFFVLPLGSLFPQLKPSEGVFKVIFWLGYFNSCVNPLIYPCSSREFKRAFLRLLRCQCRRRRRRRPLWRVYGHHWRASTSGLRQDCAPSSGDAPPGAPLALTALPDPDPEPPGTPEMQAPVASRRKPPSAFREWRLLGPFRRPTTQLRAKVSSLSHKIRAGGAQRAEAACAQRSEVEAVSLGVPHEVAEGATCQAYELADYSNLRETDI
Procedure: (§1) CHO—K1 cells were stably transfected with a plasmid containing human α1-AR subtypes A, B and D in separate cell lines in DMEM-F12 medium with 10% FBS, 1% penicillin-streptomycin and 200 μg/mL Geneticin (G418, Invitrogen, Carlsbad, Calif.).
(§2) On the next day, CHO cells were treated with either vehicle (0.1% DMSO) or SUL-150 resp. SUL-151 for 30 min at 37° C. and stimulated with a 3-fold dilution series of PE ([…]). [Ca^2+]i was measured using the fluorescent FLIPR Calcium 6 assay kit (Molecular Devices) in immortalized CHO cells stably expressing the α1 adrenoceptor.
(§3) Initially, calcium responses induced by non-cumulative concentration series of phenylephrine were investigated using fluorescent measurements in α1A adrenoceptor-overexpressing CHO cells treated with SUL-150 and SUL-151 (FIG. 4). Fluorescent measurement data was processed and analyzed in SoftMax Pro 7 and expressed as % of baseline AUC with a 3-fold multiplier using an average of first 10 measurement points as baseline.
(§4) The “Vehicle” used in all experiments is 0.1% DMSO solution.

α1A adrenoceptor = molecular target: T2, α1A adrenoceptor (Homo sapiens, UniProt P35348); experiment: Radioligand displacement binding assay with [7-Methoxy-3H]-prazosin in α1A adrenoceptor transgenic CHO cells
T2 construct: expressed in transfected cells; host or cells: CHO
T2 sequence (P35348 1-466): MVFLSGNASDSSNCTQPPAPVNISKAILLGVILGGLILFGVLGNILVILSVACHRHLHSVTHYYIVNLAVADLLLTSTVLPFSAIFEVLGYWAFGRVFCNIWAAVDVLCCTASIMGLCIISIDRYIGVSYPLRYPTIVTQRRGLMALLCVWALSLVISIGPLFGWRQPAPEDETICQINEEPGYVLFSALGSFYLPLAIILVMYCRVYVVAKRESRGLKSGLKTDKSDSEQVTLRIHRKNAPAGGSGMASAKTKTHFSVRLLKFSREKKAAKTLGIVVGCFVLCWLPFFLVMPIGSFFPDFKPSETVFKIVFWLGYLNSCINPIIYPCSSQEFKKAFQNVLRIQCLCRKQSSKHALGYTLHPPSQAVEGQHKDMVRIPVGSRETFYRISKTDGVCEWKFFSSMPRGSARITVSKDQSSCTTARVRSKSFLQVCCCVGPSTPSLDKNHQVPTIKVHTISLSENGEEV
Source text: We therefore explored whether SUL-150 could directly interact with the α1 adrenoceptor as a receptor antagonist.

[2] = molecular target: T3, human α1 adrenoceptor subtype B (Homo sapiens, UniProt P35368); experiment: Intracellular calcium assay (FLIPR Calcium 6), phenylephrine-stimulated CHO cells overexpressing α1B adrenoceptor; type: cell-based; settings: for logEC50 of phenylephrine-induced calcium influx, α1B: 30 min at 37° C.
T3 construct: expressed in transfected cells; host or cells: CHO-K1
T3 sequence (P35368 1-520): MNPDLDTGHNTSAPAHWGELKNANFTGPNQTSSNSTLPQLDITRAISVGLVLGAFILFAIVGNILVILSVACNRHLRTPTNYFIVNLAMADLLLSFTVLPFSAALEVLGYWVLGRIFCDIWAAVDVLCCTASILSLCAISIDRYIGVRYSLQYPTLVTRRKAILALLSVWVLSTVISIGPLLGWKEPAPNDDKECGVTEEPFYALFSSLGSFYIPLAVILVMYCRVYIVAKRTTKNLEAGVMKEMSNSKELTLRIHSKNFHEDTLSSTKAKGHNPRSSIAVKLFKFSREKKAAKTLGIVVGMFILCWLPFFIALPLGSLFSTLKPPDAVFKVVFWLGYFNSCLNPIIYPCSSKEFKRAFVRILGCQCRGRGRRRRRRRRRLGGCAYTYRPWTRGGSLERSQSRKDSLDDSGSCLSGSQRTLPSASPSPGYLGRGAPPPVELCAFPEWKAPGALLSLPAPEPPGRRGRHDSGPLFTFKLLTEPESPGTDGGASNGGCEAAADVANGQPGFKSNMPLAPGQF
Procedure: as §1, §2, §3, §4

[3] = molecular target: T4, human α1 adrenoceptor subtype A (Homo sapiens, UniProt P35348); experiment: Intracellular calcium assay (FLIPR Calcium 6), phenylephrine-stimulated CHO cells overexpressing α1A adrenoceptor; type: cell-based; settings: for logEC50 of phenylephrine-induced calcium influx, α1A: 30 min at 37° C.
T4 construct: expressed in transfected cells; host or cells: CHO-K1
T4 sequence (P35348 1-466): T2 sequence (P35348 1-466)
Procedure: as §1, §2, §3, §4

[4] = test system: isolated porcine intrarenal arteries; experiment: Myography: phenylephrine-induced constriction of isolated porcine intrarenal arteries; settings: 30 min pre-incubation
Procedure: Porcine kidneys were obtained from a local slaughterhouse (Kroon Vlees, Gotenburgweg 30, 9723 ™ Groningen, The Netherlands) and transported on ice in normal physiological Krebs buffer containing 120 mM NaCl, 6 mM KCl, 2.5 mM CaCl2×2H2O, 1.2 mM MgCl2×6H2O, 1.2 mM NaH2PO4×H2O, 25 mM NaHCO3 and 11.4 mM D-(+)-Glucose monohydrate (all ingredients were purchased from Merck) in ultrapure water.
The renal artery tree was dissected from the kidney, cleaned of surrounding connective tissue and cut into equally-sized ring segments (2 mm in length). In some rings, endothelium denudation was performed by gentle rubbing of the intimal surface with a paper clip. Rings were mounted in organ baths as described previously (Buikema et al., 2000).
Arterial rings were washed thoroughly by replacing Krebs buffer and allowed to equilibrate for a period of 60 min under 1.4 g of resting tension before they were assessed for viability by inducing 2 subsequent constrictions with KCl (60 mM). […] After washout and stabilization, rings were treated for 30 minutes by incubation with vehicle (0.1% DMSO), SUL-121, SUL-150 or SUL-151, followed by subsequent incubation with cumulative doses of phenylephrine.
Dose-dependent constriction responses to phenylephrine (10^−8M-10^−4M) were recorded in isolated porcine intrarenal arteries. Buffer was warmed to 37° C. and aerated with 95% O2 and 5% CO2 before use.
Vascular constriction responses are expressed as percentage of final response to KCl. Data are expressed as mean±SEM. *p<0.05.
To explore the effects of 2R and 2S-(6-hydroxy-2,5,7,8-tetramethylchroman-2-yl)(piperazin-1-yl)methanone (resp. SUL-150 and SUL-151) on constriction of isolated porcine intrarenal arteries, cumulative dose response curves to the α1 adrenoceptor agonist phenylephrine (PE) were constructed in the presence and absence of SUL-150 resp SUL-151 (FIG. 1).

[5] = test system: experimental in vivo models of COPD; settings: cited from earlier work
[6] = screening of a range of SUL compounds including trolox; cited from earlier work
[7] = in the presence of 10 μM compound
[8] = in the presence of 30 μM compound
[9] = in the presence of 100 μM compound

Row | SMILES | effect on PE-induced calcium transients, α1D subtype, in words [1] | effect on PE-induced calcium transients, α1B subtype, in words [2] | effect on PE-induced calcium transients, α1A subtype, in words [3] | logEC50 of phenylephrine-induced calcium influx, α1A ([3]; 10 μM compound) | logEC50 of phenylephrine-induced calcium influx, α1A ([3]; 30 μM compound) | logEC50 of phenylephrine-induced calcium influx, α1A ([3]; 100 μM compound) | logEC50 of phenylephrine-induced constriction responses [4, 7] | logEC50 of phenylephrine-induced constriction responses [4, 8] | logEC50 of phenylephrine-induced constriction responses [4, 9] | other results
1 | Cc1c(C)c2c(c(C)c1O)CC[C@@](C)(C(=O)N1CCNCC1)O2 [SUL-151, (2S)(6-hydroxy-2,5,7,8-tetramethylchroman-2-yl)(piperazin-1-yl)methanone] | did not affect calcium transients | did not affect calcium transients | did not affect calcium transients | −8.09 ± 0.10 | −8.09 ± 0.11 | −7.98 ± 0.10 | −5.82 ± 0.05 | −5.89 ± 0.04 | −5.77 ± 0.04 | concentrations at which [7-Methoxy-3H]-prazosin was displaced (α1A adrenoceptor): higher than 10 μM
2 | Cc1c(C)c2c(c(C)c1O)CCC(C)(C(=O)N1CCNCC1)O2 (stereo not shown) [SUL-150, (6-hydroxy-2,5,7,8-tetramethylchroman-2-yl)(piperazin-1-yl)methanone] | shifted dose response curves rightwards | shifted dose response curves rightwards | shifted dose response curves rightwards | −7.62 ± 0.03 | −7.28 ± 0.03 | −6.88 ± 0.03 | −5.11 ± 0.09* | −5.06 ± 0.06* | −4.44 ± 0.09* | logEC50 of phenylephrine-induced calcium influx, α1D ([1]; 10 μM compound): −7.37 ± 0.10; logEC50 of phenylephrine-induced calcium influx, α1D ([1]; 30 μM compound): −7.04 ± 0.06; logEC50 of phenylephrine-induced calcium influx, α1D ([1]; 100 μM compound): −6.80 ± 0.10; potency in displacing the radioligand, compared to SUL-151, in words (α1A adrenoceptor): significantly more potent; logEC50 of phenylephrine-induced calcium influx, α1B ([2]; 10 μM compound): −7.51 ± 0.08; logEC50 of phenylephrine-induced calcium influx, α1B ([2]; 30 μM compound): −7.24 ± 0.07; logEC50 of phenylephrine-induced calcium influx, α1B ([2]; 100 μM compound): −6.72 ± 0.08
3 | Cc1c(C)c2c(c(C)c1O)CCC(C)(C(=O)N1CCNCC1)O2 (racemic) [SUL-121, (6-hydroxy-2,5,7,8-tetramethylchroman-2-yl)(piperazin-1-yl)methanone] |  |  |  |  |  |  |  |  |  | LPS-induced airway neutrophilia [5]: dose-dependently reduced; LPS-induced attenuation of H2S production [5]: dose-dependently reduced; neutrophilia-related as well as unrelated ROS production [5]: dose-dependently reduced; nuclear translocation of the antioxidative response regulator Nrf2 [5]: inhibited; anti-oxidant effect [6]: very potent anti-oxidant effect
